{"source": "patent US20140349320A1", "about": "“Using Adaptive Immunity to Detect Drug Resistance” (The Trustees of the University of Pennsylvania, priority 2011, published 2014)", "key": {"[1]": {"system": "MTB strains (Beijing family, wild-type parent and rpoB H445D rifampicin-resistant isolate)", "format": "cell-based, Mycobacterium tuberculosis"}, "[2]": {"system": "MTB strains (Haarlem family, wild-type parent and rpoB S450L rifampicin-resistant isolate)", "format": "cell-based, Mycobacterium tuberculosis"}}, "data": [{"smiles": "NNC(=O)c1ccncc1", "note": "[isoniazid]", "values": [{"measurement": "MIC", "setting": "[1]", "result": "< 0.2", "unit": "µg/mL"}, {"measurement": "drug susceptibility", "setting": "[1]", "result": "susceptible"}, {"measurement": "drug susceptibility", "setting": "[2]", "result": "susceptible"}]}, {"smiles": "NC(=O)c1cnccn1", "note": "[pyrazinamide]", "values": [{"measurement": "drug susceptibility", "setting": "[1]", "result": "susceptible"}, {"measurement": "drug susceptibility", "setting": "[2]", "result": "susceptible"}]}, {"smiles": "CC[C@@H](CO)NCCN[C@@H](CC)CO", "note": "[ethambutol]", "values": [{"measurement": "drug susceptibility", "setting": "[1]", "result": "susceptible"}, {"measurement": "drug susceptibility", "setting": "[2]", "result": "susceptible"}]}]}
